For one compound, Kd results are on record in PMC4498954 (Inorganic chemistry, 2010).

What is called Kd is the equilibrium constant for the complex coming apart. Low readings indicate higher affinity, high ones lower affinity.

The target in this assay is methemoglobin (metHb, human hemoglobin, Fe(III) form) (Homo sapiens, UniProt P68871+P69905).
methemoglobin (metHb, human hemoglobin, Fe(III) form), sequence (P69905 2-142): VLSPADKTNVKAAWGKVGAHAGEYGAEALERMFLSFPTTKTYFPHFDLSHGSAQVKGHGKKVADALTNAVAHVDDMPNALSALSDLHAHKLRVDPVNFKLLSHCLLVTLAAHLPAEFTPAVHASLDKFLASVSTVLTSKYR
methemoglobin (metHb, human hemoglobin, Fe(III) form), sequence (P68871 2-147): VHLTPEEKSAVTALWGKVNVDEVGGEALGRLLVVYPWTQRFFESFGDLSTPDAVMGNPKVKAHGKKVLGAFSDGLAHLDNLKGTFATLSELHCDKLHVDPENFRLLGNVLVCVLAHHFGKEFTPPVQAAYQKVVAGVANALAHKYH

`O=NO` [nitrite] had a dissociation constant (Kd) of 1240 ± 500 µM.
